Laboratory results: patent publication US20110312984A1, “STAT3 INHIBITORS” (priority 2008, published 2011)

Legend:
Format in all cases: cell-based
MCF7 = assay: Breast cancer cell line apoptosis assay (nucleosome ELISA); details: Homo sapiens, MCF7, 24 h
Experimental: (§1) Breast cancer cell line apoptosis assay. Human breast carcinoma cell lines MDA-MB-468, MDA-MB-231, MBA-MD-435 and MCF7 were kindly provided by Dr. Powel H. Brown (Breast Cancer Center, Baylor College of Medicine). Breast cancer cell line, MDA-MB-453 was kindly provided by Dr. Shou Jiang (Breast Cancer Center, Baylor College of Medicine). All cell lines were grown in DMEM medium supplemented with 10% fetal bovine serum (FBS), 25,000 units penicillin G, 25,000 ug streptomycin, and 131.4 mg L-Glutamine and cultured in the incubator under the condition of 95% air, 5% CO2 at 37° C. (Garcia et al., 2001). Cells were seeded at 2,500 cells/cm^2 into 12-well plates. At 80% confluency, cells were washed with PBS and supplemented with fresh medium containing compound or the topoisomerase I-inhibitor, camptothecin, at 0, 0.1, 03, 1, 3, 10, 30, 100, 300 µM. At 24 hours, treatment was terminated by removing the medium from each well. Cells were lysed with cell lysis buffer (600 μl for 30 minutes at 25° C.). Cell lysate (200 μl) was centrifuged at 200×g for 10 minutes and 20 μl of each supernatant was assayed for nucleosomes using the Cell Death Detection ELISA (Roche Applied Science) as described by the manufacturer. The percent maximum nucleosome level was calculated by dividing the nucleosome level by the maximum nucleosome level achieved in the assay and multiplying by 100. […]

MDA-MB-453 = assay: as above; details: Homo sapiens, MDA-MB-453, 24 h
Experimental: as §1

Stat1 = target: T1, Stat1 (Homo sapiens, UniProt P42224); assay: Immunoblot assay: IFN-γ-mediated phosphorylation of Stat1 in HepG2 cells; details: 300 μM, 1 hour at 37° C. before IFN-γ stimulation
T1 construct: endogenous in cells; host or cells: HepG2
T1 sequence (P42224 1-750): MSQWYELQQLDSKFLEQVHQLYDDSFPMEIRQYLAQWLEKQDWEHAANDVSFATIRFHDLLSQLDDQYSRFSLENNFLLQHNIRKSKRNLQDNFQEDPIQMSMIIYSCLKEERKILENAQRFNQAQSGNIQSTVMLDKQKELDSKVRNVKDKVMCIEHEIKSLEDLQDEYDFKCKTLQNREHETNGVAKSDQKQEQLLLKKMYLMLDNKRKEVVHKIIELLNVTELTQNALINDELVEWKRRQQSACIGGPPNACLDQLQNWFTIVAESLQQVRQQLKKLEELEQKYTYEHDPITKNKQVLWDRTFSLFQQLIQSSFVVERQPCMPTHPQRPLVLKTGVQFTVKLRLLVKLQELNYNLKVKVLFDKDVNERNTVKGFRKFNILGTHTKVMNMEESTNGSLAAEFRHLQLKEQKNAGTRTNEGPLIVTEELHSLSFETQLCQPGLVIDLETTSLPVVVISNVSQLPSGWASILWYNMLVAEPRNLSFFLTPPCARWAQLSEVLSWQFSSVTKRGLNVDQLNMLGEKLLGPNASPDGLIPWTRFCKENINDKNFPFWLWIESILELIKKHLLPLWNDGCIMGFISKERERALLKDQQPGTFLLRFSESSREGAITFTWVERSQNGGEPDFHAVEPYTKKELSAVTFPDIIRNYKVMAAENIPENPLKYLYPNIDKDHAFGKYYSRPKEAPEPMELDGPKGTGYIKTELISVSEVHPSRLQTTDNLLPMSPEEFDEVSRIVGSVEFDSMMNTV
Experimental: Immunoblot assay. The human hepatocellular carcinoma cell line (HepG2) was grown in 6-well plates under standard conditions. Cells were pretreated with compounds (0, 1, 3, 10, 30, 100 and 300 uM) for 1 hour then stimulated under optimal conditions with either interferon gamma (IFN-γ; 30 ng/ml for 30 min) to activate Stat1 or interleukin-6 (IL-6; 30 ng/ml for 30 min) to activate Stat3 (30-31). Cultures were then harvested and proteins extracted using high-salt buffer, as described (Shao et al., 2006). Briefly, extracts were mixed with 2× sodium dodecyl sulfate (SDS) sample buffer (125 mmol/L Tris-HCL pH 6.8; 4% SDS; 20% glycerol; 10% 2-mercaptoethanol) at a 1:1 ratio and heated for 5 minutes at 100° C. Proteins (20 μg) were separated by 7.5% SDS-PAGE and transferred to polyvinylidene fluoride (PVDF) membrane (Millipore, Waltham, Mass.) and immunoblotted. Prestained molecular weight markers (Biorad, Hercules, Calif.) were included in each gel. Membranes were probed serially with antibody against Stat1 pY^701 or Stat3 pY^705 followed by antibody against Stat1 or Stat3 (Transduction labs, Lexington, Ky.) then antibody against β-actin (Abcam, Cambridge, Mass.). Membranes were stripped between antibody probing using Restore™ Western Blot Stripping Buffer (Thermo Fisher Scientific Inc., Waltham, Mass.) per the manufacturer's instructions. Horseradish peroxidase-conjugated goat-anti-mouse IgG was used as the secondary antibody (Invitrogen Carlsbad, Calif.) and the membranes were developed with enhanced chemiluminescence (ECL) detection system (Amersham Life Sciences Inc.; Arlington Heights, Ill.).
EXP IIC. Ligand-mediated pStat3 and pStat1 inhibition assays. […] Briefly, human hepatocellular carcinoma cells (HepG2) are grown in 6-well plates and pretreated with compounds (0, 0.1, 0.3, 1, 3, 10, 30, 100 μM) for 1 hour then stimulated under optimal conditions with either interleukin-6 (IL-6; 30 ng/ml for 30 min) to activate Stat3 or interferon gamma (IFN-γ; 30 ng/ml for 30 min) to activate Stat1. Cells are harvested and proteins extracted using high-salt buffer, mixed with 2× sodium dodecyl sulfate (SDS) sample buffer (125 mmol/L Tris-HCL pH 6.8; 4% SDS; 20% glycerol; 10% 2-mercaptoethanol) at a 1:1 ratio then heated for 5 minutes at 100° C. Proteins (20 μg) are separated by 7.5% SDS-PAGE and transferred to polyvinylidene fluoride (PVDF) membrane (Millipore, Waltham, Mass.) and immunoblotted. Membranes are probed serially with antibody against Stat1 pY701 or Stat3 pY705 followed by antibody against Stat 1 or Stat3 (Transduction labs, Lexington, Ky.) then antibody against β-actin (Abcam, Cambridge, Mass.). Membranes are stripped between antibody probings using Restore™ Western Blot Stripping Buffer (Thermo Fisher Scientific Inc., Waltham, Mass.) per the manufacturer's instructions. Horseradish peroxidase-conjugated goat-anti-mouse IgG is used as the secondary antibody (Invitrogen Carlsbad, Calif.) and the membranes are developed with enhanced chemiluminescence (ECL) detection system (Amersham Life Sciences Inc.; Arlington Heights, Ill.). Band intensities are quantified by densitometry. The value of each pStat3 band is divided by its corresponding total Stat3 band intensity; the results are normalized to the DMSO-treated control value. This value was plotted as a function of the log compound concentration. The best-fitting curve is determined using 4-Parameter Logistic Model/Dose Response/XLfit 4.2, IDBS software and was used to calculate the IC50 value.

`O=C(O)CSc1cc(NS(=O)(=O)c2ccc(C(=O)O)cc2)c2ccccc2c1O` [Cpd188, 4-[({3-[(carboxymethyl)thio]-4-hydroxy-1-naphthyl}amino)sulfonyl]benzoic acid] was tested, and the EC50 (MCF7) was 15.5 µM, the EC50 (MDA-MB-453) was 17.2 µM and the Stat1 phosphorylation blocked (Stat1) was “did not”.
